The values that follow come from patent US10155764B2, “Therapeutic compounds and uses thereof” (GENENTECH, INC., priority 2014, dated 2018).

The assay deals with PCAF719-832 bromodomain (Homo sapiens (Human), UniProt Q92831). Put plainly: PCAF AlphaLisa binding assay. As to conditions: PCAF bromodomain 225 nM, biotinylated small molecule ligand 6 nM. Background: Alpha assays give light when donor and acceptor beads are brought close together.
Sequence of PCAF719-832 bromodomain (Q92831 719-832): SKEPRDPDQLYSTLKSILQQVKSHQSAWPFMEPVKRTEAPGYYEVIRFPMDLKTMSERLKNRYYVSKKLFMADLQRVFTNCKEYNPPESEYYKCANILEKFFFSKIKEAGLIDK

Experimental: PCAF bromodomain binding and inhibition of the compounds disclosed herein was assessed by monitoring the engagement of biotinylated small molecule ligand (known to bind to the PCAF bromodomain) with the target using the AlphaLisa technology (Perkin-Elmer).

Regarding `CN(C)C(CNc1nn(C)c(=O)c2ccccc12)c1ccc(F)cc1` (racemic) [Example 20, 4-((2-(dimethylamino)-2-(4-fluorophenyl)ethyl)amino)-2-methylphthalazin-1(2H)-one], the concentration for half-maximal inhibition (IC50) (in general, the concentration needed to halve the response being measured) was 110 nM. For the compound `Cn1nc(N[C@H]2CCCC[C@H]2N)c2ncccc2c1=O` (single isomer, unassigned) [Example 14B], the concentration for half-maximal inhibition (IC50) is 1500 nM. For `CN(C)C(CNc1nn(C)c(=O)c2ccccc12)c1ccc(Cl)cc1` (racemic) [Example 27, 4-((2-(4-chlorophenyl)-2-(dimethylamino)ethyl)amino)-2-methylphthalazin-1(2H)-one] the value was 120 nM. Compound `CC(Nc1nn(C)c(=O)c2cccnc12)C(c1cn(C)nn1)N(C)C` (single isomer, unassigned) [Example 75, 8-((1-(dimethylamino)-1-(1-methyl-1H-1,2,3-triazol-4-yl)propan-2-yl)amino)-6-methylpyrido[2,3-d]pyridazin-5(6H)-one] returned a half-maximal inhibitory concentration (IC50) of 130 nM.

As to `Cn1nc(NC2CNC2)c2ncccc2c1=O` [Example 19, 8-(azetidin-3-ylamino)-6-methylpyrido[2,3-d]pyridazin-5(6H)-one], the IC50 was determined as 3400 nM.

Take `C/C=C/Cn1nc(NC(C)CN(C)C)c2ccccc2c1=O` (racemic) [Example 31, (E)-2-(but-2-en-1-yl)-4-((1-(dimethylamino)propan-2-yl)amino)phthalazin-1(2H)-one]: the IC50 came out at 8100 nM. The figure for `CN(C)[C@H]1CCCC[C@H]1Nc1nn(C)c(=O)c2cccnc12` (single isomer, unassigned) [Example 15A] is 78 nM. For `CN(C)[C@@H]1c2ccccc2C[C@@H]1Nc1nn(C)c(=O)c2cccnc12` [Example 46A, 8-(((1R,2S)-1-(dimethylamino)-2,3-dihydro-1H-inden-2-yl)amino)-6-methylpyrido[2,3-d]pyridazin-5(6H)-one] the value was 4800 nM; for `CN(C)C(CNc1nn(C)c(=O)c2ccccc12)c1ccccc1F` (racemic) [Example 26, 4-((2-(dimethylamino)-2-(2-fluorophenyl)ethyl)amino)-2-methylphthalazin-1(2H)-one], 110 nM.

Consider `CN(C)[C@H]1c2ccccc2C[C@H]1Nc1nn(C)c(=O)c2ccccc12` [Example 47B, 4-(((1S,2R)-1-(dimethylamino)-2,3-dihydro-1H-inden-2-yl)amino)-2-methylphthalazin-1(2H)-one], for which the IC50 is more than 5000 nM. The figure for `C[C@@H](Nc1nn(C)c(=O)c2cccnc12)[C@@H](c1ccc(S(=O)(=O)c2ccccc2)cc1)N(C)C` (single isomer, unassigned) [Example 74B] is 2300 nM. For `C[C@H](Nc1nn(C)c(=O)c2cccnc12)[C@H](c1ccc(C(=O)N2CCOCC2)cc1)N(C)C` [Example 82, 8-(((1S,2S)-1-(dimethylamino)-1-(4-(morpholine-4-carbonyl)phenyl)propan-2-yl)amino)-6-methylpyrido[2,3-d]pyridazin-5(6H)-one] the value was 59 nM; for `CCN(CC)CCNc1nn(C)c(=O)c2ccccc12` [Example 23, 4-((2-(diethylamino)ethyl)amino)-2-methylphthalazin-1(2H)-one], 2400 nM. For `CN(C)[C@@H](CNc1nn(C)c(=O)c2ccccc12)c1ccccc1` (single isomer, unassigned) [Example 22B] the value was 550 nM. In the case of `CN(C)C(CNc1nn(C)c(=O)c2ccccc12)c1ccccc1Cl` (racemic) [Example 25, 4-((2-(2-chlorophenyl)-2-(dimethylamino)ethyl)amino)-2-methylphthalazin-1(2H)-one], the concentration for half-maximal inhibition (IC50) is 110 nM. The compound `COc1ccc([C@@H]([C@H](C)Nc2nn(C)c(=O)c3ccccc23)N(C)C)cn1` (single isomer, unassigned) [Example 62] displayed an IC50 of 63 nM.

`C[C@H](Nc1nn(C)c(=O)c2ccccc12)[C@H](c1cccnc1)N(C)C` (single isomer, unassigned) [Example 61] returned a half-inhibitory concentration (IC50) of 86 nM.

The compound `CN(C)C(CNc1nn(C)c(=O)c2[nH]ccc12)c1ccccc1` (racemic) [Example 10, 4-((2-(dimethylamino)-2-phenylethyl)amino)-6-methyl-1H-pyrrolo[2,3-d]pyridazin-7(6H)-one] had a half-maximal inhibitory concentration (IC50) of 240 nM. For `COc1ccc2c(=O)n(C)nc(NCCN(C)C)c2c1` [Example 3, 4-((2-(dimethylamino)ethyl)amino)-6-methoxy-2-methylphthalazin-1(2H)-one] the value was 410 nM; for `C[C@H](Nc1nn(C)c(=O)c2ccccc12)[C@H](c1ccc(OCC2CC2)cc1)N(C)C` (single isomer, unassigned) [Example 78], 44 nM; for `CC(CN(C)C)Nc1nn(C)c(=O)c2cnccc12` (racemic) [Example 13, 1-((1-(dimethylamino)propan-2-yl)amino)-3-methylpyrido[3,4-d]pyridazin-4(3H)-one], 150 nM. The figure for `CC[C@H](Nc1nn(C)c(=O)c2ccccc12)[C@H](c1ccccc1)N(C)C` (single isomer, unassigned) [Example 56] is 41 nM; for `CN(C)[C@H]1c2ccccc2C[C@H]1Nc1nn(C)c(=O)c2cccnc12` [Example 46B, 8-(((1S,2R)-1-(dimethylamino)-2,3-dihydro-1H-inden-2-yl)amino)-6-methylpyrido[2,3-d]pyridazin-5(6H)-one] it is more than 5000 nM; for `C[C@H](Nc1nn(C)c(=O)c2ccccc12)[C@H](c1ccccc1)N(C)C` (single isomer, unassigned) [Example 73A] it is 23 nM. Take `C[C@@H](Nc1nn(C)c(=O)c2[nH]ccc12)[C@@H](c1ccccc1)N(C)C` (single isomer, unassigned) [Example 71B]: the IC50 came out at 83 nM.

In the case of `CC[C@@H](CNc1nn(C)c(=O)c2ccccc12)N(C)C` (single isomer, unassigned) [Example 39A], the IC50 is 550 nM. The figure for `CN(C)C(CNc1nn(C)c(=O)c2ccccc12)c1ccccc1` (racemic) [Example 22, 4-((2-(dimethylamino)-2-phenylethyl)amino)-2-methylphthalazin-1(2H)-one] is 140 nM; for `Cn1nc(NCCN2CCC2)c2ccccc2c1=O` [Example 50, 4-((2-(azetidin-1-yl)ethyl)amino)-2-methylphthalazin-1(2H)-one] it is 990 nM. The figure for `CN(C)CCNc1nn(C)c(=O)c2cccc(F)c12` [Example 5, 4-((2-(dimethylamino)ethyl)amino)-5-fluoro-2-methylphthalazin-1(2H)-one] is 130 nM; for `CN(C)[C@@H]1CCCC[C@@H]1Nc1nn(C)c(=O)c2cccnc12` (single isomer, unassigned) [Example 15B] it is 1500 nM. The figure for `C[C@H](Nc1nn(C)c(=O)c2cccnc12)[C@H](c1ccc(C(=O)O)cc1)N(C)C` [Example 81, 4-((1S,2S)-1-(dimethylamino)-2-((6-methyl-5-oxo-5,6-dihydropyrido[2,3-d]pyridazin-8-yl)amino)propyl)benzoic acid] is 98 nM; for `Cc1cccc2c(=O)n(C)nc(N[C@H](C)[C@@H](c3ccccc3)N(C)C)c12` (single isomer, unassigned) [Example 70B] it is 1800 nM; for `Cn1nc(NCCN2CCCCC2)c2ccccc2c1=O` [Example 41, 2-methyl-4-((2-(piperidin-1-yl)ethyl)amino)phthalazin-1(2H)-one] it is 2200 nM.

`CC(CN(C)C)Nc1nn(C)c(=O)c2ccncc12` (racemic) [Example 12, 4-((1-(dimethylamino)propan-2-yl)amino)-2-methylpyrido[3,4-d]pyridazin-1(2H)-one] showed an IC50 of 220 nM. For `C[C@H](Nc1nn(C)c(=O)c2ccccc12)[C@H](c1ccc(=O)[nH]c1)N(C)C` [Example 88, 4-(((1S,2S)-1-(dimethylamino)-1-(6-oxo-1,6-dihydropyridin-3-yl)propan-2-yl)amino)-2-methylphthalazin-1(2H)-one] the value was 80 nM; for `C[C@H](Nc1nn(C)c(=O)c2[nH]ccc12)[C@H](c1ccccc1)N(C)C` (single isomer, unassigned) [Example 71A], more than 5000 nM; for `CC(Nc1nn(C)c(=O)c2cccnc12)C(c1ccc(S(=O)(=O)c2ccccc2)cc1)N(C)C` (single isomer, unassigned) [Example 74, 8-((1-(dimethylamino)-1-(4-(phenylsulfonyl)phenyl)propan-2-yl)amino)-6-methylpyrido[2,3-d]pyridazin-5(6H)-one], 40 nM. For `CNC(=O)c1ccc([C@@H]([C@H](C)Nc2nn(C)c(=O)c3cccnc23)N(C)C)cc1` (single isomer, unassigned) [Example 85] the value was 50 nM. The figure for `CN(C)CCSc1nn(C)c(=O)c2ccccc12` [Example 9, 4-((2-(dimethylamino)ethyl)thio)-2-methylphthalazin-1(2H)-one] is 890 nM; for `C[C@H](Nc1nn(C)c(=O)c2ccccc12)[C@H](c1ccc(Oc2ccccn2)cc1)N(C)C` (single isomer, unassigned) [Example 80] it is 46 nM. As for `Cc1cccc2c(=O)n(C)nc(N[C@@H](C)[C@H](c3ccccc3)N(C)C)c12` (single isomer, unassigned) [Example 70A], the concentration for half-maximal inhibition (IC50) was 36 nM. As for `Cn1nc(N[C@@H]2CCCC[C@@H]2N)c2ncccc2c1=O` (single isomer, unassigned) [Example 14A], the IC50 was more than 5000 nM.

As to `C[C@H](Nc1nn(C)c(=O)c2ccccc12)[C@H](c1ccccn1)N(C)C` (single isomer, unassigned) [Example 60], the IC50 was found to be 21 nM.

In turn, `Cc1cccc2c(N[C@H](C)[C@@H](c3ccccc3)N(C)C)nn(C)c(=O)c12` (single isomer, unassigned) [Example 69B] showed an IC50 of 170 nM. For `CN(C)CCNc1nn(C)c(=O)c2c(F)cccc12` [Example 6, 4-((2-(dimethylamino)ethyl)amino)-8-fluoro-2-methylphthalazin-1(2H)-one] the value was 87 nM.
